We go through 40 compounds from ChEMBL document CHEMBL1141910, “Combinatorial approaches towards the discovery of new tryptase inhibitors” (Bioorg Med Chem Lett, 2005).

Assay [1] has as its target T1, Tryptase beta-1 (Homo sapiens, UniProt Q15661). Nature of the assay: Percentage inhibition against tryptase at 10 uM.
Target sequence in this assay (Q15661 31-275 limits assumed): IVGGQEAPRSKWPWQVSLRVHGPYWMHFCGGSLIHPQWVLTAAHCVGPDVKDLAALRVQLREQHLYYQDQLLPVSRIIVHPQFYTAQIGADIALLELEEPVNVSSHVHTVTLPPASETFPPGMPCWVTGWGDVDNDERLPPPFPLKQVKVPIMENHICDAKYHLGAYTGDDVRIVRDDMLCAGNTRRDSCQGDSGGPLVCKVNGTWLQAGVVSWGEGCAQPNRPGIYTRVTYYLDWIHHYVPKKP
In assay [2] the target is T1, Tryptase beta-1. The assay is described as follows: Inhibitory concentration against tryptase.
Target sequence in this assay (Q15661 whole entry): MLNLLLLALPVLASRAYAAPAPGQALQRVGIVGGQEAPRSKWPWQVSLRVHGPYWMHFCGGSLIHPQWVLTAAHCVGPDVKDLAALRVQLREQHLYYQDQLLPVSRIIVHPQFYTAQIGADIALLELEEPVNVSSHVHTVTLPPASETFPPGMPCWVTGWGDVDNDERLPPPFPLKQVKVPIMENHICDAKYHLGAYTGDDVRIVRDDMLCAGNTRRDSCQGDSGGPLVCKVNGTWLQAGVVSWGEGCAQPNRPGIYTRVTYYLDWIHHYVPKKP

Usually inhibition stands for the drop in the measured response relative to a control, in per cent. As to `N=C(N)NCCC[C@H](NC(=O)OCc1ccccc1)C(=O)NCCCC[C@@H]1NC(=O)[C@H](CC(=O)Nc2ccc(C(=N)N)cc2)NC1=O`, the inhibition in assay [1] is 41.6%.

As a reminder, the IC50 is the midpoint of a concentration-inhibition curve. In the case of `N=C(N)NCCC[C@H](NC(=O)OCc1ccccc1)C(=O)NCCCC[C@@H]1NC(=O)[C@H](CCCCNC(=O)[C@H](CCCN=C(N)N)NC(=O)OCc2ccccc2)NC1=O`, in assay [2], the IC50 stood at 4.1 µM. Moreover, in assay [1], the inhibition turned out to be 48.5%.

In turn, `N=C(N)NCCCC(=O)NCCCC[C@@H]1NC(=O)[C@H](CCCCNC(=O)[C@H](CCCNC(=N)N)NC(=O)OCc2ccccc2)NC1=O` showed an IC50 in assay [2] of 2.2 µM. Further, the inhibition in assay [1] was 83%.

`N=C(N)NCCC[C@H](NC(=O)c1ccccc1)C(=O)NCCCC[C@@H]1NC(=O)[C@H](CC(=O)Nc2cccc(C(=N)N)c2)NC1=O`: in assay [2], the IC50 turned out to be 12.4 µM. The inhibition in assay [1] came to 70.6%.

For the compound `N=C(N)NCCCC(NC(=O)OCC1c2ccccc2-c2ccccc21)C(=O)NCCCC[C@@H]1NC(=O)[C@H](CC(=O)Nc2ccc(C(=N)N)cc2)NC1=O` (some centres not stated), the inhibition in assay [1] is 64.5%.

Turning to `N=C(N)Nc1ccc(C(=O)NCCCC[C@@H]2NC(=O)[C@H](CCCCNC(=O)CN3CCN=C3N)NC2=O)cc1`, the inhibition in assay [1] is 61.1%.

For `CN(CCC(=O)NCCCC[C@@H]1NC(=O)[C@H](CCCCNC(=O)CCCN=C(N)N)NC1=O)C(=N)N`, the inhibition in assay [1] amounted to 36.7%.

For `N=C(N)NCCC[C@H](NC(=O)c1ccccc1)C(=O)NCCCC[C@@H]1NC(=O)[C@H](CC(=O)Nc2ccc(C(=N)N)cc2)NC1=O`, the inhibition in assay [1] came to 45%.

In assay [2], `N=C(N)NCC(=O)NCCCC[C@@H]1NC(=O)[C@H](CC(=O)Nc2cccc(C(=N)N)c2)NC1=O` registered an IC50 of 19.9 µM. The inhibition in assay [1] stood at 58.6%.

In assay [2], `CN(CCC(=O)NCCCC[C@@H]1NC(=O)[C@H](CCCCNC(=O)CCNC(=N)N)NC1=O)C(=N)N` had an IC50 of 5.9 µM.

As for `N=C(N)NCCCCC(=O)O`, the inhibition in assay [1] stood at 0.23%.

For `N=C(N)NCCCCC(=O)NCCCC[C@@H]1NC(=O)[C@H](CCCCNC(=O)[C@H](CCCNC(=N)N)NC(=O)c2ccccc2)NC1=O`, the IC50 in assay [2] came out at 9.3 µM. In assay [1], the inhibition was 47.5%.

Regarding `CN(CCC(=O)NCCCC[C@@H]1NC(=O)[C@H](CCCCNC(=O)CCN=C(N)N)NC1=O)C(=N)N`, the inhibition in assay [1] was found to be 51.7%.

As for `N=C(N)NCCCC(NC(=O)OCC1c2ccccc2-c2ccccc21)C(=O)NCCCC[C@@H]1NC(=O)[C@H](CC(=O)/N=C(\N)NNCCCc2ccccc2)NC1=O` (some centres not stated), the inhibition in assay [1] is 49.3%.

Turning to `N=C(N)NCCC[C@H](NC(=O)OCc1ccccc1)C(=O)NCCCC[C@@H]1NC(=O)[C@H](CCCCNC(=O)[C@H](CCCN=C(N)N)NC(=O)c2ccccc2)NC1=O`, in assay [1], the inhibition is 43.3%.

Consider `N=C(N)NCCCC(=O)O`, for which the inhibition in assay [1] came to 8.92%.

For `N=C(N)NCCCC(NC(=O)OCc1ccccc1)C(=O)O` (configuration not stated), the inhibition in assay [1] was found to be 1.97%.

On to `N=C(N)NNC(=O)C[C@@H]1NC(=O)[C@H](CCCCNC(=O)c2ccc(NC(=N)N)cc2)NC1=O`, for which the inhibition in assay [1] came to 42.5%.

In assay [2], `N=C(N)NCCCC(NC(=O)OCC1c2ccccc2-c2ccccc21)C(=O)NCCCC[C@@H]1NC(=O)[C@H](CC(=O)Nc2cccc(C(=N)N)c2)NC1=O` (some centres not stated) registered an IC50 of 9.09 µM. Besides, the inhibition in assay [1] was found to be 62.6%.

On to `N=C(N)NCCC[C@H](N)C(=O)O`, for which, in assay [1], the inhibition turned out to be 3.71%.

Regarding `NC1=NCCN1CC(=O)O`, the inhibition in assay [1] stood at 3.24%.

For `N=C(N)Nc1ccc(C(=O)O)cc1`, in assay [1], the inhibition turned out to be 38.8%.

In the case of `N=C(N)NCCCC(NC(=O)c1ccccc1)C(=O)O` (configuration not stated), the inhibition in assay [1] is 7.53%.

In turn, `NC(N)=Nc1ccc(C(=O)NCCCC[C@@H]2NC(=O)[C@H](CCCCNC(=O)CN3CCN=C3N)NC2=O)cc1` returned an IC50 in assay [2] of 4.4 µM.

Consider `N=C(N)c1cccc(NC(=O)C[C@@H]2NC(=O)[C@H](CCCCNC(=O)CN3CCN=C3N)NC2=O)c1`, for which the inhibition in assay [1] was 47.7%.

As for `N=C(N)NCC(=O)O`, the inhibition in assay [1] was -3%.

`N=C(N)Nc1ccc(C(=O)NCCCC[C@@H]2NC(=O)[C@H](CC(=O)Nc3cccc(C(=N)N)c3)NC2=O)cc1`: in assay [1], the inhibition is 47.3%.

Regarding `N=C(N)Nc1ccc(C(=O)NCCCC[C@@H]2NC(=O)[C@H](CC(=O)Nc3ccc(C(=N)N)cc3)NC2=O)cc1`, the inhibition in assay [1] came to 73.9%.

As to `N=C(N)NCCCC(=O)NCCCC[C@@H]1NC(=O)[C@H](CCCCNC(=O)[C@H](CCCNC(=N)N)NC(=O)c2ccccc2)NC1=O`, 2.4 µM corresponded to half-maximal inhibition in assay [2] (IC50). For the same compound, the inhibition in assay [1] was 80.5%.

`CN(CCC(=O)O)C(=N)N`: the inhibition in assay [1] was 2.55%.

The compound `CN(CCC(=O)NCCCC[C@@H]1NC(=O)[C@H](CC(=O)Nc2cccc(C(=N)N)c2)NC1=O)C(=N)N` had an IC50 in assay [2] of 12.8 µM. For the same compound, in assay [1], the inhibition was 62.6%.

For `N=C(N)c1ccc(C(=O)O)cc1`, the inhibition in assay [1] came to 2.9%.

`N=C(N)NCCC[C@H](NC(=O)OCc1ccccc1)C(=O)NCCCC[C@@H]1NC(=O)[C@H](CC(=O)Nc2cccc(C(=N)N)c2)NC1=O`: the inhibition in assay [1] was found to be 59%.

Consider `N=C(N)NCCCCC(=O)NCCCC[C@@H]1NC(=O)[C@H](CCCCNC(=O)[C@H](CCCNC(=N)N)NC(=O)OCc2ccccc2)NC1=O`, for which, in assay [2], the midpoint of inhibition, the IC50, lay at 5.7 µM. In addition, the inhibition in assay [1] came to 68%.

In turn, `N=C(N)NCCC(=O)NCCCC[C@@H]1NC(=O)[C@H](CC(=O)Nc2cccc(C(=N)N)c2)NC1=O` returned an IC50 in assay [2] of 23.6 µM. For the same compound, the inhibition in assay [1] is 76.5%.

As for `N=C(N)NCCCCC(=O)NCCCC[C@@H]1NC(=O)[C@H](CCCCNC(=O)CCCNC(=N)N)NC1=O`, the inhibition in assay [1] amounted to 44.4%.

Take `N=C(N)NCCCC(=O)NCCCC[C@@H]1NC(=O)[C@H](CCCCNC(=O)CCCNC(=N)N)NC1=O`: in assay [2], half-maximal inhibition (IC50) required 4.7 µM. In addition, the inhibition in assay [1] amounted to 59.3%.

On to `N=C(N)NCCC[C@H](NC(=O)c1ccccc1)C(=O)NCCCC[C@@H]1NC(=O)[C@H](CCCCNC(=O)CCNC(=N)N)NC1=O`, for which the inhibition in assay [1] was 31.2%.

The compound `N=C(N)NCCCC(=O)NCCCC[C@@H]1NC(=O)[C@H](CC(=O)Nc2cccc(C(=N)N)c2)NC1=O` had an IC50 in assay [2] of 21.3 µM. For the same compound, in assay [1], the inhibition is 54.4%.

As for `N=C(N)NCCC(=O)O`, in assay [1], the inhibition is -6%.
